Reference: patent publication USRE33699E, “Growth hormone-releasing factor analogs” (International Minerals & Chemical Corp., priority 1990, dated 1991)
Square brackets hold non-standard residues; d marks the D form. Peptide text beside a SMILES is read from it. Nle = CCCC[C@H](N)C(=O)O

Tested on: rat pituitary cells
Experiment: Bioassay of hGRF analogs: stimulation of growth hormone release in rat pituitary cells in tissue culture
Type: cell-based
Settings: for Dose Needed to Release 2.01 μg/ml of GH: 2.01 μg/ml = GH released at the ED50 of hGRF; for Dose Needed to Release 2.01 μg/ml of GH / Relative Maximum Activity (% of hGRF): from ALLFIT curves; for Potency: (ED50 of hGRF)/(Dose required to give same response as ED50 of hGRF)
Text: The assay for biological activity, which is based on the ability to stimulate release of growth hormone in rat pituitary cells in tissue culture, has been described in detail (Culler, M. D.; Kenjo, T.: Obara, N.; Arimuar, A., Stimulation of cAMP. Accumulation by Human Pancreatic GH-Releasing Factor(1-44). Am. J. Physiol. 1984, 247 (Endocrinol.Metab. 10). E609-E615.
ALLFIT, the 4-parameter logistic curve fitting program available from the Biomedical Computer Technology Information Center, Vanderbilt Medical Center, Nashville Tenn., was used to determine ED50 and maximal stimulated values from the data. In several instances, the amount of GH released reached a maximum value and decreased with further increasing doses of the hGRF analogs. To simplify the data analysis, these values were not used in the calculations. The calculated maximal responses, the doses of the analog required to release the amount of GH released at the ED50 of the standard (hGRF) and the potencies of the analogs relative to hGRF, are given in Table 2. Generally all novel analogs were fully active and were able to stimulate the release of growth hormone with maximal values of GH release being within 80% of the value for natural hGRF.

SMILES | Dose Needed to Release 2.01 μg/ml of GH [nM] | Potency [%] | Relative Maximum Activity (% of hGRF) | Potency (Asp^8, Asn^25, Nle^27 ]) [%]
CCCC[C@H](NC(=O)[C@@H](NC(=O)[C@H](CC(N)=O)NC(=O)[C@H](CCC(N)=O)NC(=O)[C@H](CC(C)C)NC(=O)[C@H](CC(C)C)NC(=O)[C@H](CCCCN)NC(=O)[C@H](CCCNC(=N)N)NC(=O)[C@H](C)NC(=O)[C@H](CO)NC(=O)[C@H](CC(C)C)NC(=O)[C@H](CCC(N)=O)NC(=O)CNC(=O)[C@H](CC(C)C)NC(=O)[C@@H](NC(=O)[C@H](CCCCN)NC(=O)[C@H](CCCNC(=N)N)NC(=O)[C@H](Cc1ccc(O)cc1)NC(=O)[C@H](CO)NC(=O)[C@H](CC(N)=O)NC(=O)[C@@H](NC(=O)[C@H](Cc1ccccc1)NC(=O)[C@@H](NC(=O)[C@H](C)NC(=O)[C@H](CC(=O)O)NC(=O)[C@H](C)NC(=O)[C@@H](N)Cc1ccc(O)cc1)[C@@H](C)CC)[C@@H](C)O)C(C)C)[C@@H](C)CC)C(=O)N[C@@H](CO)C(=O)N[C@@H](CCCNC(=N)N)C(=O)N[C@@H](CCC(N)=O)C(=O)N[C@@H](CCC(N)=O)C(N)=O [[Asn^25, Nle^27]-hGRF(1-31)--NH2, [Asn^25,Nle^27]-hGRF(1-31)--NH2] (H-YADAIFTNSYRKVLGQLSARKLLQNI[Nle]SRQQ-NH2) | 0.12 | 267 | 96 % of hGRF | –
CCCC[C@H](NC(=O)[C@@H](NC(=O)[C@H](CC(N)=O)NC(=O)[C@H](CCC(N)=O)NC(=O)[C@H](CC(C)C)NC(=O)[C@H](CC(C)C)NC(=O)[C@H](CCCCN)NC(=O)[C@H](CCCNC(=N)N)NC(=O)[C@H](C)NC(=O)[C@H](CO)NC(=O)[C@H](CC(C)C)NC(=O)[C@H](CCC(N)=O)NC(=O)CNC(=O)[C@H](CC(C)C)NC(=O)[C@@H](NC(=O)[C@H](CCCCN)NC(=O)[C@H](CCCNC(=N)N)NC(=O)[C@H](Cc1ccc(O)cc1)NC(=O)[C@H](CO)NC(=O)[C@H](CC(=O)O)NC(=O)[C@@H](NC(=O)[C@H](Cc1ccccc1)NC(=O)[C@@H](NC(=O)[C@H](C)NC(=O)[C@H](CC(=O)O)NC(=O)[C@H](C)NC(=O)[C@@H](N)Cc1ccc(O)cc1)[C@@H](C)CC)[C@@H](C)O)C(C)C)[C@@H](C)CC)C(=O)N[C@@H](CO)C(=O)N[C@@H](CCCNC(=N)N)C(=O)N[C@@H](CCC(N)=O)C(=O)N[C@@H](CCC(N)=O)C(N)=O [[Asp^8, Asn^25, Nle^27]-hGRF(1-31)--NH2, [Asp^8,Asn^25,Nle^27]-hGRF(1-31)--NH2] (H-YADAIFTDSYRKVLGQLSARKLLQNI[Nle]SRQQ-NH2) | 0.42 | 76 | 87 % of hGRF | –
CC[C@H](C)[C@H](NC(=O)[C@H](C)NC(=O)[C@H](CC(=O)O)NC(=O)[C@H](C)NC(=O)[C@@H](N)Cc1ccc(O)cc1)C(=O)N[C@@H](Cc1ccccc1)C(=O)N[C@H](C(=O)N[C@@H](CC(N)=O)C(=O)N[C@@H](CO)C(=O)N[C@@H](Cc1ccc(O)cc1)C(=O)N[C@@H](CCCNC(=N)N)C(=O)N[C@@H](CCCCN)C(=O)N[C@H](C(=O)N[C@@H](CC(C)C)C(=O)NCC(=O)N[C@@H](CCC(N)=O)C(=O)N[C@@H](CC(C)C)C(=O)N[C@@H](CO)C(=O)N[C@@H](C)C(=O)N[C@@H](CCCNC(=N)N)C(=O)N[C@@H](CCCCN)C(=O)N[C@@H](CC(C)C)C(=O)N[C@@H](CC(C)C)C(=O)N[C@@H](CCC(N)=O)C(=O)N[C@@H](CC(=O)O)C(=O)N[C@H](C(=O)N[C@@H](CCSC)C(=O)N[C@@H](CO)C(=O)N[C@@H](CCCNC(=N)N)C(=O)N[C@@H](CCC(N)=O)C(=O)N[C@@H](CCC(N)=O)C(=O)NCC(=O)N[C@@H](CCC(=O)O)C(=O)N[C@@H](CO)C(=O)N[C@@H](CC(N)=O)C(=O)N[C@@H](CCC(N)=O)C(=O)N[C@@H](CCC(=O)O)C(=O)N[C@@H](CCCNC(=N)N)C(=O)NCC(=O)N[C@@H](C)C(=O)N[C@@H](CCCNC(=N)N)C(=O)N[C@@H](C)C(=O)N[C@@H](CCCNC(=N)N)C(=O)N[C@@H](CC(C)C)C(N)=O)[C@@H](C)CC)C(C)C)[C@@H](C)O [hGRF(1-44)--NH2, reference compound] | 0.32 | 100 | 100 % of hGRF | –
CCCC[C@H](NC(=O)[C@@H](NC(=O)[C@H](CC(=O)O)NC(=O)[C@H](CCC(N)=O)NC(=O)[C@H](CC(C)C)NC(=O)[C@H](CC(C)C)NC(=O)[C@H](CCCCN)NC(=O)[C@H](CCCNC(=N)N)NC(=O)[C@H](C)NC(=O)[C@H](CO)NC(=O)[C@H](CC(C)C)NC(=O)[C@H](CCC(N)=O)NC(=O)CNC(=O)[C@H](CC(C)C)NC(=O)[C@@H](NC(=O)[C@H](CCCCN)NC(=O)[C@H](CCCNC(=N)N)NC(=O)[C@H](Cc1ccc(O)cc1)NC(=O)[C@H](CO)NC(=O)[C@H](CC(N)=O)NC(=O)[C@@H](NC(=O)[C@H](Cc1ccccc1)NC(=O)[C@@H](NC(=O)[C@H](C)NC(=O)[C@H](CC(N)=O)NC(=O)[C@H](C)NC(=O)[C@@H](N)Cc1ccc(O)cc1)[C@@H](C)CC)[C@@H](C)O)C(C)C)[C@@H](C)CC)C(=O)N[C@@H](CO)C(=O)N[C@@H](CCCNC(=N)N)C(=O)N[C@@H](CCC(N)=O)C(=O)N[C@@H](CCC(N)=O)C(N)=O [[Asn^3, Nle^27]-hGRF(1-31)--NH2] (H-YANAIFTNSYRKVLGQLSARKLLQDI[Nle]SRQQ-NH2) | 0.58 | 55 | 93 % of hGRF | –
CCCC[C@H](NC(=O)[C@@H](NC(=O)[C@H](CC(=O)O)NC(=O)[C@H](CCC(N)=O)NC(=O)[C@H](CC(C)C)NC(=O)[C@H](CC(C)C)NC(=O)[C@H](CCCCN)NC(=O)[C@H](CCCNC(=N)N)NC(=O)[C@H](C)NC(=O)[C@H](CO)NC(=O)[C@H](CC(C)C)NC(=O)[C@H](CCC(N)=O)NC(=O)CNC(=O)[C@H](CC(C)C)NC(=O)[C@@H](NC(=O)[C@H](CCCCN)NC(=O)[C@H](CCCNC(=N)N)NC(=O)[C@H](Cc1ccc(O)cc1)NC(=O)[C@H](CO)NC(=O)[C@H](CC(=O)O)NC(=O)[C@@H](NC(=O)[C@H](Cc1ccccc1)NC(=O)[C@@H](NC(=O)[C@H](C)NC(=O)[C@H](CC(=O)O)NC(=O)[C@H](C)NC(=O)[C@@H](N)Cc1ccc(O)cc1)[C@@H](C)CC)[C@@H](C)O)C(C)C)[C@@H](C)CC)C(=O)N[C@@H](CO)C(=O)N[C@@H](CCCNC(=N)N)C(=O)N[C@@H](CCC(N)=O)C(=O)N[C@@H](CCC(N)=O)C(N)=O [[Asp^8, Nle^27]-hGRF(1-31)--NH2, [Asp^8,Nle^27]-hGRF(1-31)--NH2] (H-YADAIFTDSYRKVLGQLSARKLLQDI[Nle]SRQQ-NH2) | 0.39 | 82 | 109 % of hGRF | –
CCCC[C@H](NC(=O)[C@@H](NC(=O)[C@H](CC(N)=O)NC(=O)[C@H](CCC(N)=O)NC(=O)[C@H](CC(C)C)NC(=O)[C@H](CC(C)C)NC(=O)[C@H](CCCCN)NC(=O)[C@H](CCCNC(=N)N)NC(=O)[C@H](C)NC(=O)[C@H](CO)NC(=O)[C@H](CC(C)C)NC(=O)[C@H](CCC(N)=O)NC(=O)CNC(=O)[C@H](CC(C)C)NC(=O)[C@@H](NC(=O)[C@H](CCCCN)NC(=O)[C@H](CCCNC(=N)N)NC(=O)[C@H](Cc1ccc(O)cc1)NC(=O)[C@H](CO)NC(=O)[C@H](CC(=O)O)NC(=O)[C@@H](NC(=O)[C@H](Cc1ccccc1)NC(=O)[C@@H](NC(=O)[C@H](C)NC(=O)[C@H](CC(N)=O)NC(=O)[C@H](C)NC(=O)[C@@H](N)Cc1ccc(O)cc1)[C@@H](C)CC)[C@@H](C)O)C(C)C)[C@@H](C)CC)C(=O)N[C@@H](CO)C(=O)N[C@@H](CCCNC(=N)N)C(=O)N[C@@H](CCC(N)=O)C(=O)N[C@@H](CCC(N)=O)C(N)=O [[Asn^3,Asp^8,Asn^25,Nle^27]-hGRF(1-31)--NH2] (H-YANAIFTDSYRKVLGQLSARKLLQNI[Nle]SRQQ-NH2) | 12.05 | 5 | 94 % of hGRF | 3
CCCC[C@H](NC(=O)[C@@H](NC(=O)[C@H](CC(N)=O)NC(=O)[C@H](CCC(N)=O)NC(=O)[C@H](CC(C)C)NC(=O)[C@H](CC(C)C)NC(=O)[C@H](CCCCN)NC(=O)[C@H](CCCNC(=N)N)NC(=O)[C@H](C)NC(=O)[C@H](CO)NC(=O)[C@H](CC(C)C)NC(=O)[C@H](CCC(N)=O)NC(=O)CNC(=O)[C@H](CC(C)C)NC(=O)[C@@H](NC(=O)[C@H](CCCCN)NC(=O)[C@H](CCCNC(=N)N)NC(=O)[C@H](Cc1ccc(O)cc1)NC(=O)[C@H](CO)NC(=O)[C@H](CC(N)=O)NC(=O)[C@@H](NC(=O)[C@H](Cc1ccccc1)NC(=O)[C@@H](NC(=O)[C@H](C)NC(=O)[C@H](CC(N)=O)NC(=O)[C@H](C)NC(=O)[C@@H](N)Cc1ccc(O)cc1)[C@@H](C)CC)[C@@H](C)O)C(C)C)[C@@H](C)CC)C(=O)N[C@@H](CO)C(=O)N[C@@H](CCCNC(=N)N)C(=O)N[C@@H](CCC(N)=O)C(=O)N[C@@H](CCC(N)=O)C(N)=O [[Asn^3, Asn^25, Nle^27]-hGRF(1-31)--NH2, [Asn^3,Asn^25,Nle^27]-hGRF (1-31)--NH2] (H-YANAIFTNSYRKVLGQLSARKLLQNI[Nle]SRQQ-NH2) | 1.54 | 21 | 101 % of hGRF | –
